Values quoted from earlier work in paper PMC8008885 (Journal of Enzyme Inhibition and Medicinal Chemistry, 2021).

Tested on: HD transgenic mice
Conditions: cited from earlier work

**Q.** For `NCCSSCCN` [cystamine], which H3K9 trimethylation is on record?
**A.** reduced

**Q.** What about the SETDB1 gene expression of the same molecule?
**A.** down-regulates

**Q.** What about the “behaviour and neuropathological phenotype” value of the same molecule?
**A.** improved

**Q.** For `COC(=O)[C@@H]1c2cc3c(c(O)c2[C@@H](O[C@@H]2O[C@@H](C)[C@H](OC)[C@@](C)(OC)[C@H]2OC)C[C@]1(C)O)C(=O)c1c(O)cc2c(c1C3=O)O[C@@H]1O[C@@]2(C)[C@H](O)[C@@H](N(C)C)[C@@H]1O` [nogalamycin], which “neuroprotective effects by suppressing elevated SETDB1 and H3K9me3 level” value is on record?
**A.** improved neuroprotective effects

**Q.** For mithramycin, which H3K9 trimethylation is on record?
**A.** reduced

**Q.** What about the SETDB1 gene expression of the same molecule?
**A.** down-regulates

**Q.** What about the “behaviour and neuropathological phenotype” value of the same molecule?
**A.** improved
